Here are results for two compounds from paper PMC11522901, “Translation of Deoxyribonucleic Acid into Synthetic Alpha Helical Peptides for Darwinian Evolution” (JACS Au, 2024).

Experiment [1] addresses T1, MDM2 (Homo sapiens, UniProt Q00987).
T1 construct: made in house
The experiment can be described thus: Surface plasmon resonance (SPR) against captured GST-MDM2. Type of experiment: binding. The note with it: SPR Biacore T200, 25 °C, PBS-P+; GST-MDM2 captured via anti-GST antibody on CM5 chip; 2-fold dilutions 250 nM to 3.91 nM; association 250 s, dissociation 400 s. The protocol: SPR experiments were performed on a Biacore T200 instrument (GE Healthcare) at 25 °C in PBS-P+ buffer (10× stock; Cytiva Life Sciences #28995084). One mL PP 96-well plates (Greiner #780201) were used for dilution directly in the plates. Anti-GST antibody (Cytiva #27457701) was chemically immobilized on a CM5 series S sensor chip (Cytiva Life Sciences #29149604) by EDC/NHS-mediated coupling. For this, an amine coupling kit (Cytiva Life Sciences #BR100633) and the recommended protocol were followed with the following specifications: 20 μg/mL of antibody diluted in 10 mM NaAc pH 5.0 buffer flowed over both flow channels for 600 s (flow rate 10 μL min^–1).
Kinetic measurements consisted of ligand capture of GST-MDM2 (200 nM, 350 s injection, flow rate 10 μL min^–1, stabilization 60 s), followed by injections (association, 250 s; dissociation, 400 s; flow rate, 30 μL min^–1) of decreasing concentrations of compounds (2-fold cascade dilutions from the starting concentration). The chip was regenerated between cycles by one injection of regeneration solution (10 mM glycine-HCl at pH 1.5) for 10 s at a flow rate of 30 μL min^–1, followed by a 120 s stabilization period. Binding was measured as resonance units over time after blank subtraction, and the data were interpreted using Biacore T200 software (version 3.2). The KD values were calculated based on steady-state affinity (1:1 binding). […]
5. Surface Plasmon Resonance Results […]
dotted lines representing the fittings from which the kinetic values are calculated. The compounds […]
shown in Figure 6 are tested at 250 nM (highest concentration) with a 2-fold dilution series until 3.91 nM (lowest concentration).
SPR Curves of compounds 4.1 and 4.4
4.1: Concentrations tested: 125 nM to 3.91 nM (2-fold dilutions) – KD: ND
Supplementary Figure 4. SPR curve of compound 4.1 against MDM2
For orientation: Surface plasmon resonance follows binding to a sensor surface in real time, without labels.

For experiment [2], the system named is GST-MDM2. The experiment can be described thus: Binder/nonbinder affinity selection on GST-MDM2 beads with plate reader readout. The note with it: 1:1 mixture, 500 nM each, 2 h at 4 °C with GST-MDM2 on GSH beads, four washes, elution 95 °C 5 min. It counts as binding. From the text:
We next investigated whether a templated ligation could yield peptides in an α-helical conformation. Since CD-based analyses would be difficult to interpret given the PNA, we opted to assess the helical nature of the peptide using binding to a target that requires this conformation. To this end, we used MDM2, an important regulator of the p53 tumor suppressor, which binds to an α-helix of p53[47] and has been a testing ground for stapling technologies[48]−[52] and screening technologies.[53]−[56] Additionally, several X-ray diffraction structures of the MDM2-peptide complex have been reported, supporting the importance of the helicity of the peptide.[51],[57],[58] […] Affinity selection of this mixture against GST-MDM2 immobilized on GSH beads was monitored by fluorescence quantification of the supernatant solution. […]
Ten μL of MagneGST glutathione particles (Promega #V8611) were blocked with 1 mg/mL BSA in PBS-CHAPS (10 mM phosphate buffer, 2.7 mM KCl, and 137 mM NaCl, pH 7.4, with 0.05% CHAPS) three times at room temperature for 5 min. […] The initial library, post-incubation library, washes, and elution were analyzed by a plate reader (SpectraMax i3x, in black 96-well microtiter plates (Thermo Scientific #267342)). […]

T1 sequence (Q00987 whole entry, species assumed): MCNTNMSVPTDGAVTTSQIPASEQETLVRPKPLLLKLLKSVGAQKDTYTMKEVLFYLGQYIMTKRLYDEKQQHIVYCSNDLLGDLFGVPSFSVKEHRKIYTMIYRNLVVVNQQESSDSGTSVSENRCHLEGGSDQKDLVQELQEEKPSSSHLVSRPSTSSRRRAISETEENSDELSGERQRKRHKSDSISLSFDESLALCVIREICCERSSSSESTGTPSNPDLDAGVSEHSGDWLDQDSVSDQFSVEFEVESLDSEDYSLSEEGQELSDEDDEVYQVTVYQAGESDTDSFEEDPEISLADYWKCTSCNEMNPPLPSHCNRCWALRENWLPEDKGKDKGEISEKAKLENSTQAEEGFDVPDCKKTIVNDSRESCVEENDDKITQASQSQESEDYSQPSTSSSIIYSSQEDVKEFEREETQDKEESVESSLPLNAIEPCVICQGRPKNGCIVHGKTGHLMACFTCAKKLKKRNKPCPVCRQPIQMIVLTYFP

`CCCC[C@H](NC(=O)[C@H](CC(C)C)NC(=O)[C@H](CCC(N)=O)NC(=O)[C@H](C)NC(=O)[C@H](Cc1c[nH]c2ccccc12)NC(=O)[C@H](Cc1ccc(O)cc1)NC(=O)[C@H](CCC(N)=O)NC(=O)[C@H](CCCC)NC(=O)[C@H](Cc1ccccc1)NC(=O)[C@@H](NC(=O)[C@H](CC(C)C)NC(=O)CNC(=O)CN(CCNC(=O)CN(CCNC(=O)CN(CCNC(=O)CN(CCNC(=O)[C@H](CCCNC(=N)N)NC(=O)COCCOCCNC(=O)[C@H](CCCNC(=N)N)NC(=O)CN(CCNC(=O)CN(CCNC(=O)CN(CCNC(=O)CN(CCNC(=O)CN(CCNC(=O)CN(CCNC(=O)CN(CCNC(=O)CN(CCNC(=O)[C@H](CCCNC(=N)N)NC(C)=O)C(=O)Cn1cnc2c(=O)[nH]c(N)nc21)C(=O)Cn1ccc(N)nc1=O)C(=O)Cn1ccc(N)nc1=O)C(=O)Cn1cnc2c(=O)[nH]c(N)nc21)C(=O)Cn1cc(C)c(=O)[nH]c1=O)C(=O)Cn1cnc2c(N)ncnc21)C(=O)Cn1cnc2c(=O)[nH]c(N)nc21)C(=O)Cn1cnc2c(=O)[nH]c(N)nc21)C(=O)Cn1ccc(N)nc1=O)C(=O)Cn1ccc(N)nc1=O)C(=O)Cn1cc(C)c(=O)[nH]c1=O)C(=O)Cn1cnc2c(N)ncnc21)[C@@H](C)O)C(=O)N[C@@H](CO)C(=O)NCC(=O)NCCN(CC(=O)NCCN(CC(=O)NCCN(CC(=O)NCCN(CC(=O)N[C@@H](CCCNC(=N)N)C(N)=O)C(=O)Cn1ccc(N)nc1=O)C(=O)Cn1cnc2c(=O)[nH]c(N)nc21)C(=O)Cn1cnc2c(=O)[nH]c(N)nc21)C(=O)Cn1ccc(N)nc1=O` [2.1 (PNA)]: in experiment [1], the koff is 0.0021 s⁻¹ and the kon is 1e+06 M⁻¹ s⁻¹.

For the compound “PNA- Gly Ser Nle Cba Gln Ala Trp Tyr Glu Nle Phe Thr Leu Gly -PNA (head to tail) [binder]”, the “recovery in heat elution after affinity selection (fluorescence)” value in experiment [2] was “strong recovery”.

A word on the koff: it is the first-order rate constant of dissociation. Higher therefore signals fast dissociation. Usually kon stands for the second-order rate constant of association. A low value points to slower complex formation.
